Test results published in article PMC5671890 (Journal of molecular medicine (Berlin, Germany), 2017).
Values after ≈ are worked out from the molar mass of the structure shown. Counter-ions that a name gives are not always drawn. Positions of bridges follow the written chain, without caps; N, C: chain ends. Non-standard residues stand in square brackets, D forms with d. Residues, ends and D or L forms follow the SMILES beside them. *: point of attachment. X1 = CC[C@H](C)CCCCC(=O)*; Dab = NCC[C@H](N)C(=O)O

Key:
Type in all cases: cell-based
Conditions in all cases: cation-adjusted Mueller Hinton broth, serial 2-fold dilutions, repeated 3 times
[1] = tested on: Pseudomonas aeruginosa PAO1 Wt
[2] = tested on: Pseudomonas aeruginosa PAO1 vacJ−:vacJ complemented strain
[3] = tested on: Pseudomonas aeruginosa PAO1 vacJ− mutant

`CC[C@H](C)CCCCC(=O)N[C@@H](CCN)C(=O)N[C@H](C(=O)N[C@@H](CCN)C(=O)N[C@H]1CCNC(=O)[C@H]([C@@H](C)O)NC(=O)[C@H](CCN)NC(=O)[C@H](CCN)NC(=O)[C@H](CC(C)C)NC(=O)[C@@H](CC(C)C)NC(=O)[C@H](CCN)NC1=O)[C@@H](C)O` [Colistin, colistin sulfate] (X1-[Dab]T[Dab][Dab][Dab][dL]L[Dab][Dab]T; lactam 4-C (inferred); N-terminus assumed) gave an MIC [1] of 1 µg/mL, an MIC [2] of 1 µg/mL and an MIC [3] of 0.5 µg/mL.
Work on `CC[C@H](C)CCCCC(=O)N[C@@H](CCN)C(=O)N[C@H](C(=O)N[C@@H](CCN)C(=O)N[C@H]1CCNC(=O)[C@H]([C@@H](C)O)NC(=O)[C@H](CCN)NC(=O)[C@H](CCN)NC(=O)[C@H](CC(C)C)NC(=O)[C@@H](Cc2ccccc2)NC(=O)[C@H](CCN)NC1=O)[C@@H](C)O` [Polymyxin B] (X1-[Dab]T[Dab][Dab][Dab][dF]L[Dab][Dab]T; lactam 4-C (inferred); N-terminus assumed) yielded an MIC [1] of 0.5 µg/mL (≈ 0.415 µM), an MIC [2] of 0.5 µg/mL (≈ 0.415 µM) and an MIC [3] of 0.25 µg/mL (≈ 0.208 µM).
